Where two headings read alike, the source gives them in different places.
Tests used:
[1] = test system: MAb MBr1 with breast cancer cell lines such as MCF-7; experiment: flow cytometry inhibition assay of mAb MBr1 reactivity with MCF-7; type: cell-based; conditions: for inhibition of reactivity of MAb MBr1 with breast cancer cell lines such as MCF-7: 8 μg/ml of preparation
Protocol: By Thin Layer Chromatography (TLC) the 2 preparations migrate as similar single bands. […] The high level of reactivity of the β structure with mAb MBr1 was confirmed using flow cytometry inhibition assays. Reactivity of MAb MBr1 with breast cancer cell lines such as MCF-7 was 98% inhibited by 8 μg/ml of the β linkage preparation but was only 6% inhibited by 8 μg of the α-linkage preparation.
(§1) The breast tumor glycolipid associated antigen 2 (See FIG. 24) isolated by Hakomori and co-workers from MCF-7 cells, and termed globe H, constituted a promising possibility for exploration (Kannagi, R., et al., J. Biol. Chem. 1983, 258, 8934; Bremer, G., et al., J. Biol. Chem. 1984 259, 14773). Early studies in this area were facilitated by the immunocharacterization of the antigen by the murine monoclonal antibody Mbr1 (Menard, S., et al., Cancer Res. 1983, 43, 1295). Previously, we had described the total synthesis of the hexacyclic globo H glycal 1 (See FIG. 24) by the method of glycal assembly (See FIG. 24) (Bilodeau, M.T., et al., J. Am. Chem. Soc. 1995 117, 7840; Park, et al., J. Am. Chem. Soc. 1996, 118, 11488). This system was carried forward to reach antigen 2 (See FIG. 24), whose structure assignment was verified by unambiguous spectroscopic corroboration through this synthesis.

mAb MBr1 = experiment: binding to mAb MBr1, mapping of structural requirements; design: species or system murine
Source text: as §1
We then built upon the logic of our synthesis to prepare congeners of the compound and to use them to map the structural requirements for binding to the mAb MBr1.

[2] = test system: antisera binding to globo H antigen 2; experiment: inhibition of binding of anti-globo H antisera to globo H antigen 2 (ELISA); design: species or system mice
Source text: As an indication of specificity, we conducted assays with compounds 2-8 of FIGS. 24 and 25 to determine their ability to inhibit the binding of antisera to the fully synthetic globo H antigen 2 (FIG. 28). […] Partial inhibition resulted from truncated globo H compounds, but not with unrelated compounds such as ganglioside GD3. These findings are consistent with a polyclonal serological response in which different antibodies react with different portions of compound 2.

MBr1 monoclonal antibody = experiment: Immune TLC with monoclonal antibody MBr1; type: binding, murine; conditions: comparable staining with 1/10 the amount of antigen
[3] = test system: mice (antibodies against the immunizing antigen); experiment: immunization of mice with Le^y conjugates 17c and 32c, ELISA antibody titer; type: in vivo; conditions: one set of 5 mice; graphs J-L
Protocol: The stage was set for immunizations with conjugates 17c and 32c. The immunizations with the BSA conjugate 17c were carried out on two sets of 5 mice and the immunizations with the ceramide conjugate 32c were carried out on one set of 5 mice. An enzyme-linked immunosorbant assay (ELISA) was used to measure antibody titer (FIG. 20(b)). Three different ELISA experiments were performed to measure antibody titer. The first is the measure of total antibody response (aIg), that is the summation of IgM and IgG antibodies, as shown in graphs A, D, G. and J of FIGS. 21(a) and (b). The other two assays measure IgM and IgG antibodies separately as indicated in the graphs. The ELISA assay (see FIG. 20(b)) involves the immobilization of a test antigen in a microtiter well. The serum to be tested for antibodies is placed in the well. Any antibodies in the serum recognizing the test antigen will remain in the well after thorough washing. Next, modified anti-mouse Ig, IgM, or IgG antibodies are placed in the well. […] The presence of the alkaline phosphatase-linked secondary antibody causes cleavage of the phosphate, yielding the yellow p-nitrophenolate anion, which can be quantified using spectrophotometric techniques.
Graphs A, B, and C in FIG. 21(a) show the measured titers of total antibody Ig (A), IgM (B), and IgG (C) type antibodies in five mice immunized with conjugate 17c. […]

Compound	inhibition of reactivity of MAb MBr1 with breast cancer cell lines such as MCF-7 [1] [%]	binding to mAb MBr1 (mAb MBr1)	binding to mAb MBr1 (mAb MBr1; listed as 1b)	inhibition of binding of antisera to globo H antigen 2 [2]	inhibition of MBr1 binding to MCF-7 cells [1]	reactivity with MBr1 monoclonal antibody, β-form relative to the other form (MBr1 monoclonal antibody) [times]	IgG response [3]	IgM response [3]
Fucα1→2GalB1→3GalNAcα1→3Galα1→4GalB1→1Cer [α-linkage preparation]	6	–	–	–	–	–	–	–
Fuca1→GalB1→3GalNAcB1→3Galα1→4GlB1→4GcB1→1Cer [compound 2]	98	bind to the murine monoclonal antibody (mAb) MBr1	bind to the monoclonal antibody MBr1	complete inhibition	inhibited its binding to MCF-7 cells	10	–	–
CCCCCCCCCCCCCC=C[C@@H](O)[C@@H](CO[C@@H]1O[C@H](CO)[C@@H](O[C@@H]2O[C@H](CO)[C@H](O)[C@H](O)[C@H]2O[C@@H]2O[C@@H](C)[C@@H](O)[C@@H](O)[C@@H]2O)[C@H](O[C@@H]2O[C@@H](C)[C@@H](O)[C@@H](O)[C@@H]2O)[C@H]1NC(C)=O)NC(=O)CCCCCCCCCCCCCCC [32c, (3R)-Hydroxy-(2R)-hexadecanamido-4-octadecenyl-[[[(6-deoxy-a-L-galactopyranosyl)-(1→2)]-(b-D-galactopyranosyl)-(1→4)]-(6-deoxy-a-L-galactopyranosyl)-(1→3)]-2-deoxy-2-acetamido-b-D-glucopyranose]	–	–	–	–	–	–	No mice showed any IgG response	Most mice showed only a weak IgM response

Source: patent US6544952B1, “Synthesis of glycoconjugates of the globo-H epitope and uses thereof” (Sloan-Kettering Institute for Cancer Research, priority 1994, dated 2003)
